Earlier results on 5 compounds are cited in patent US11235084B2, “Embolic microspheres” (Varian Medical Systems, Inc., priority 2017, dated 2022).

With `CC(C)(CO)NCC(O)CS(=O)(=O)O` (centres unmarked) [AMPSO, N-(1,1-dimethyl-2-hydroxyethyl)-3-amino-2-hydroxypropanesulfonic acid], the “reported pKa values at 25° C.” value is given as 9.1.
With `O=S(=O)(O)CCCNC1CCCCC1` [CAPS, 3-(cyclohexylamino)-1-propanesulfonic acid], the “reported pKa values at 25° C.” value is recorded as 10.5.
For `O=S(=O)(O)CCNC1CCCCC1` [CHES, 2-(cyclohexylamino)-1-ethanesulfonic acid], the “reported pKa values at 25° C.” value was 9.4.
As to `CCN1CCOCC1` [N-ethylmorpholine], the “reported pKa values at 25° C.” value is 7.8.
In the case of `NCC(=O)NCC(=O)O` [glycylglycine], the “reported pKa values at 25° C.” value was 8.3.
